Reference: patent US8293774B2, “Optically active (R)-aryloxypropionic acid amides and herbicidal composition comprising same” (Kyung Nong Corporation, priority 2007, dated 2012)

Tests used:
[1] = system: ORYSA (Oryza sativa cv. Dongjin, rice); assay: Weed control test, foliage treatment (Test Example 1, Table 7); conditions: in vivo
[2] = system: TRZAW (Tritium aestivum L., wheat); assay: as above; conditions: in vivo
[3] = system: GLXMA (Glycine max(L.) MERR, soy bean); assay: as above; conditions: in vivo
[4] = system: ZEAMX (Zea mays L., corn); assay: as above; type: in vivo; conditions: Zea mays, foliar, read-out: Plant damage (herbicidal activity), visually evaluated, ZEAMX; for plant injury at 25 g/ha: 0.025 kg/ha; for plant injury at 100 g/ha: 0.1 kg/ha; for plant injury at 200 g/ha: 0.2 kg/ha
Summary of the method: (§1)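 Seeds sown in sandy loam and grown in a greenhouse at 20 to 30° C to the 3-leaf stage of barnyard grass; foliage then sprayed with 2,000 l/ha of a water-diluted emulsion of compound, acetone and Tween 80 (1:5:1 by weight). Damage scored visually, 1 to 100% versus untreated control, at 10 and 20 days.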

[5] = system: SORBI (Andropogon sorghum, common sorgum); assay: as above; type: in vivo; conditions: Sorghum bicolor, foliar, read-out: Plant damage (herbicidal activity), visually evaluated, SORBI; for pest or weed control at 25 g/ha: 0.025 kg/ha; for pest or weed control at 100 g/ha: 0.1 kg/ha; for pest or weed control at 200 g/ha: 0.2 kg/ha
Summary of the method: as §1

[6] = system: DIGSA (Digitaria Sanguinalis (L.) SCOP, large crabgrass); assay: as above; type: in vivo; conditions: Digitaria sanguinalis, foliar, read-out: Plant damage (herbicidal activity), visually evaluated, DIGSA; for pest or weed control at 25 g/ha: 0.025 kg/ha; for pest or weed control at 100 g/ha: 0.1 kg/ha; for pest or weed control at 200 g/ha: 0.2 kg/ha
Summary of the method: as §1

[7] = system: ARTHIS (Arthraxon hispidus (Thunb.) Makino, creek grass); assay: as above; type: in vivo; conditions: Arthraxon hispidus, foliar, read-out: Plant damage (herbicidal activity), visually evaluated, ARTHIS; for pest or weed control at 25 g/ha: 0.025 kg/ha; for pest or weed control at 100 g/ha: 0.1 kg/ha; for pest or weed control at 200 g/ha: 0.2 kg/ha
Summary of the method: as §1

[8] = system: SETVIR (Setaria viridis (L.) Beauv, green foxtail); assay: as above; type: in vivo; conditions: Setaria viridis, foliar, read-out: Plant damage (herbicidal activity), visually evaluated, SETVIR; for pest or weed control at 25 g/ha: 0.025 kg/ha; for pest or weed control at 100 g/ha: 0.1 kg/ha; for pest or weed control at 200 g/ha: 0.2 kg/ha
Summary of the method: as §1

[9] = system: ECHOG (Echinoch crus-galli Beauv. var. caudata Kitagawa, barnyard grass); assay: as above; type: in vivo; conditions: Echinochloa crus-galli, foliar, 3-leaf stage, read-out: Plant damage (herbicidal activity), visually evaluated, ECHOG; for pest or weed control at 25 g/ha: 0.025 kg/ha; for pest or weed control at 100 g/ha: 0.1 kg/ha; for pest or weed control at 200 g/ha: 0.2 kg/ha
Summary of the method: as §1

[10] = system: PANDI (Panium dichotomiflorum Michx, fall panicum); assay: as above; type: in vivo; conditions: Panicum dichotomiflorum, foliar, read-out: Plant damage (herbicidal activity), visually evaluated, PANDI; for pest or weed control at 25 g/ha: 0.025 kg/ha; for pest or weed control at 100 g/ha: 0.1 kg/ha; for pest or weed control at 200 g/ha: 0.2 kg/ha
Summary of the method: as §1

Barnyard grass = assay: Weed control test, 4-leaf stage plants (Test Example 1, Table 8); type: in vivo, Echinoch crus-galli Beauv. var. caudata Kitagawa
Source text: Seeds of rice, wheat, soy bean, barley, corn, common sorgum, barnyard grass, large crabgrass, creek grass, green foxtail and fall panicum were placed in sandy loam in 600 cm^2 pots and covered with soil. […], 2,000 l/ha of an emulsion obtained by diluting with water a mixture of 1 part by weight of a test compound, 5 parts by weight of acetone and 1 part by weight of an emulsifying agent (Tween 80, Junsei) was applied to the surface of the foliage of the plants. The plant damage at 10 days and 20 days after the foliage treatment was visually evaluated from the level of 1 to 100% by comparison with the untreated control: […]

Rice = assay: as above; conditions: in vivo
Experimental: Seeds of rice, wheat, soy bean, barley, corn, common sorgum, barnyard grass, large crabgrass, creek grass, green foxtail and fall panicum were placed in sandy loam in 600 cm^2 pots and covered with soil. After keeping the pots in a greenhouse at 20 to 30° C. allowing growth of the plants to the 3-leaf stage of the barnyard grass, 2,000 l/ha of an emulsion obtained by diluting with water a mixture of 1 part by weight of a test compound, 5 parts by weight of acetone and 1 part by weight of an emulsifying agent (Tween 80, Junsei) was applied to the surface of the foliage of the plants. The plant damage at 10 days and 20 days after the foliage treatment was visually evaluated from the level of 1 to 100% by comparison with the untreated control: […]

[11] = system: HORVU (Hordeum vulgare L., barley); assay: Weed control test, foliage treatment (Test Example 1, Table 7); conditions: in vivo

`C[C@@H](Oc1ccc(Oc2nc3ccc(Cl)cc3o2)cc1)C(=O)N(C)c1nc2ccccc2s1` [Example 6, (R)-2-[4-(6-chloro-2-benzoxazolyloxy)phenoxy]propionic acid-N-(2-benzothiazolyl)-N-methyl amide] was tested, and the “Plant damage (herbicidal activity), visually evaluated, ORYSA” value (from here on “Plant damage (herbicidal activity) … ORYSA”) [1] was 0%, the “Plant damage (herbicidal activity), visually evaluated, TRZAW” value (“Plant damage (herbicidal activity) … TRZAW” for short) [2] was 0% and the “Plant damage (herbicidal activity), visually evaluated, GLXMA” value (“Plant damage (herbicidal activity) … GLXMA” for short) [3] was 0%. The plant injury at 25 g/ha [4] was 0%, the plant injury at 100 g/ha [4] was 10% and the plant injury at 200 g/ha [4] was 90%. For the same compound, the pest or weed control at 25 g/ha [5] was 10%, the pest or weed control at 100 g/ha [5] was 50% and the pest or weed control at 200 g/ha [5] was 90%. It also gave a pest or weed control at 25 g/ha [6] of 0%, a pest or weed control at 100 g/ha [6] of 20% and a pest or weed control at 200 g/ha [6] of 70%. The pest or weed control at 25 g/ha [7] was 0%, the pest or weed control at 100 g/ha [7] was 20% and the pest or weed control at 200 g/ha [7] was 50%. For the same compound, the pest or weed control at 25 g/ha [8] was 0%, the pest or weed control at 100 g/ha [8] was 20% and the pest or weed control at 200 g/ha [8] was 50%. The pest or weed control at 25 g/ha [9] was 0%, the pest or weed control at 100 g/ha [9] was 20% and the pest or weed control at 200 g/ha [9] was 70%. For the same compound, the pest or weed control at 25 g/ha [10] was 0%, the pest or weed control at 100 g/ha [10] was 20% and the pest or weed control at 200 g/ha [10] was 70%. The “Plant damage (herbicidal activity), visually evaluated, Barnyard grass” value (“Plant damage … Barnyard grass” for short) (Barnyard grass; 0.025 kg/ha) was 0%, the “Plant damage … Barnyard grass” value (Barnyard grass; 0.05 kg/ha) was 0% and the “Plant damage … Barnyard grass” value (Barnyard grass; 0.1 kg/ha) was 10%. For the same compound, the “Plant damage … Barnyard grass” value (Barnyard grass; 0.4 kg/ha) was 30% and the “Plant damage (herbicidal activity), visually evaluated, Rice” value (Rice) was 0%.
For `COc1ccc2nc(N(C)C(=O)[C@@H](C)Oc3ccc(Oc4nc5ccc(Cl)cc5o4)cc3)sc2c1` [Example 14, (R)-2-[4-(6-chloro-2-benzoxazolyloxy)phenoxy]propionic acid-N-(6-methoxy-2-benzothiazolyl)-N-methyl amide], the “Plant damage (herbicidal activity) … ORYSA” value [1] was 0%, the “Plant damage (herbicidal activity) … TRZAW” value [2] was 0% and the “Plant damage (herbicidal activity) … GLXMA” value [3] was 0%. The plant injury at 25 g/ha [4] was 0%, the plant injury at 100 g/ha [4] was 10% and the plant injury at 200 g/ha [4] was 90%. For the same compound, the pest or weed control at 25 g/ha [5] was 10%, the pest or weed control at 100 g/ha [5] was 50% and the pest or weed control at 200 g/ha [5] was 90%. For the same compound, the pest or weed control at 25 g/ha [6] was 0%, the pest or weed control at 100 g/ha [6] was 20% and the pest or weed control at 200 g/ha [6] was 70%. It also gave a pest or weed control at 25 g/ha [7] of 0%, a pest or weed control at 100 g/ha [7] of 20% and a pest or weed control at 200 g/ha [7] of 50%. The pest or weed control at 25 g/ha [8] was 0%, the pest or weed control at 100 g/ha [8] was 20% and the pest or weed control at 200 g/ha [8] was 50%. It also gave a pest or weed control at 25 g/ha [9] of 0%, a pest or weed control at 100 g/ha [9] of 20% and a pest or weed control at 200 g/ha [9] of 70%. The pest or weed control at 25 g/ha [10] was 0%, the pest or weed control at 100 g/ha [10] was 20% and the pest or weed control at 200 g/ha [10] was 70%. The “Plant damage … Barnyard grass” value (Barnyard grass; 0.025 kg/ha) was 0%, the “Plant damage … Barnyard grass” value (Barnyard grass; 0.05 kg/ha) was 0% and the “Plant damage … Barnyard grass” value (Barnyard grass; 0.1 kg/ha) was 10%. The “Plant damage … Barnyard grass” value (Barnyard grass; 0.4 kg/ha) was 50% and the “Plant damage (herbicidal activity), visually evaluated, Rice” value (Rice) was 0%.
In the case of `C[C@@H](Oc1ccc(OC(F)=Cc2ccc(Cl)cc2)cc1)C(=O)Nc1nc2cc(Cl)ccc2o1` [Example 56, (R)-2-[4-(1-fluoro-2-(4-chlorophenyl)vinyloxy)phenoxy]propionic acid-N-(5-chloro-2-benzoxazolyl)amide], the “Plant damage (herbicidal activity), visually evaluated, HORVU” value [11] is reported as 0%, the “Plant damage (herbicidal activity) … ORYSA” value [1] is reported as 0% and the “Plant damage (herbicidal activity) … TRZAW” value [2] is reported as 0%. For the same compound, the “Plant damage (herbicidal activity) … GLXMA” value [3] was 0%, the plant injury at 25 g/ha [4] was 10% and the plant injury at 100 g/ha [4] was 90%. For the same compound, the plant injury at 200 g/ha [4] was 90%, the pest or weed control at 25 g/ha [5] was 0% and the pest or weed control at 100 g/ha [5] was 20%. The pest or weed control at 200 g/ha [5] was 20%, the pest or weed control at 25 g/ha [6] was 0% and the pest or weed control at 100 g/ha [6] was 20%. The pest or weed control at 200 g/ha [6] was 90%, the pest or weed control at 25 g/ha [7] was 0% and the pest or weed control at 100 g/ha [7] was 0%. The pest or weed control at 200 g/ha [7] was 10%, the pest or weed control at 25 g/ha [8] was 0% and the pest or weed control at 100 g/ha [8] was 0%. The pest or weed control at 200 g/ha [8] was 20%, the pest or weed control at 25 g/ha [9] was 20% and the pest or weed control at 100 g/ha [9] was 70%. It also gave a pest or weed control at 200 g/ha [9] of 90%, a pest or weed control at 25 g/ha [10] of 0% and a pest or weed control at 100 g/ha [10] of 0%. It also gave a pest or weed control at 200 g/ha [10] of 10%.
